From article PMC12006758 (Frontiers in Chemistry, 2025)
In brackets after ≈: the same amount, converted by molar mass. Read-outs that look alike come from different tables or passages of the source.

Columns and labels:
MCF7 cancer cell line = test: MTT cell viability assay, MCF7; type: cell-based; conditions: Homo sapiens
Method: (§1) All cell lines were obtained from the Vacsera Cell Culture Library, Tissue Culture Unit, Cairo, Egypt, with ATCC certification. For further details, See Supplementary Appendix A in the supplementary data.
(§2) All cell lines were obtained from the Vacsera Cell Culture Library, Tissue Culture Unit, Cairo, Egypt, with ATCC certification.
(§3) Cells were cultured in DMEM (Invitrogen/Life Technologies) supplemented with 10% FBS (Hyclone), […] (Sigma), and 1% penicillin-streptomycin. Cells were seeded at a density of 1.2–1.8 × 10,000 cells per well in 96-well plates with 100 µL of complete growth medium […]. After 24 hours of incubation, 100 µL of serially diluted sterile test compounds were added to achieve final concentrations ranging from 0.01 to 100 µM, with growth media serving as the negative control. Following another 24-hour incubation, supernatants were removed, and cells were prepared for MTT testing.
(§4) Each experiment included a blank control with complete media but no cells. […] Reconstituted MTT was added to the culture medium at 10% of its volume, and cultures were incubated for 2 to 4 hours, depending on cell type and density.
(§5) Absorbance was measured spectrophotometrically at 570 nm, with background absorbance at 690 nm subtracted. Data from all experiments were recorded, and cell viability percentages were calculated.

PC3 cancer cell line = test: MTT cell viability assay, PC3; type: cell-based; conditions: Homo sapiens, read-out: IC50 PC3
Method: as §1, §2, §3, §4, §5

[1] = system: normal CCD-986sk cell line; test: MTT cell viability assay, normal CCD-986sk; type: cell-based; conditions: Homo sapiens, read-out: IC50 CCD-986sk
Method: as §1, §2, §3, §4, §5

HT-29 cancer cell line = test: MTT cell viability assay, HT-29; type: cell-based; conditions: Homo sapiens, HT-29 colon cancer cells
Method: as §1, §2, §3, §4, §5

PC3 cells [2] = test: Cell cycle analysis by flow cytometry (PI); type: cell-based, human; conditions: Pyr at IC50 (8.63 μg/mL), 24 hours
Method: For further details, See Supplementary Appendix A in the supplementary data.
After treatment, the cells were washed twice with ice-cold phosphate-buffered saline (PBS, pH 7.4, Sigma-Aldrich, Inc.), collected by centrifugation, and fixed in 66% ice-cold ethanol. The cells were subsequently washed with PBS, resuspended in a solution containing 0.1 mg/mL RNase for 30 minutes, stained with 50 µg/mL propidium iodide (PI), and analyzed using the FACSCalibur flow cytometry system (Becton Dickinson, Franklin Lakes, NJ, USA). Cell cycle distributions were determined with CellQuest software (Becton Dickinson).

PC3 cells [3] = test: Annexin V-FITC/PI apoptosis assay; type: cell-based, human; conditions: Pyr at IC50 (8.63 μg/mL), 48 hours
Description: To detect apoptosis in PC3 cancer cells, the Annexin V FITC assay protocol was employed as described in the literature ([Ali et al., 2024]). For further details, See Supplementary Appendix A in the supplementary data.
The Annexin V-FITC Apoptosis Detection Kit (Catalog #: K101-25, Bio Vision Research Products, Mountain View, CA, USA) operates on the principle that during the early stages of apoptosis, phosphatidylserine (PS) translocates from the inner leaflet of the plasma membrane to the extracellular surface. This relocation allows PS to be detected by Annexin V, a protein with high affinity for PS, when conjugated with a fluorescent compound. The staining process is quick, taking only 10 minutes, and apoptosis detection is performed using flow cytometry. The kit differentiates between apoptotic and necrotic cells based on Annexin V-FITC and propidium iodide (PI) labeling. Early apoptotic cells are Annexin V-positive and PI-negative, while late apoptotic cells are both Annexin V-positive and PI-positive.
For the experiment, cells (5 × 10⁵) were cultured in triplicate in Dulbecco’s Modified Eagle Medium (DMEM) at 37 °C in a 5% CO₂ atmosphere for 24 hours to allow for attachment. […] Following incubation, cells were harvested, washed with cold PBS, and resuspended in binding buffer. Annexin V and PI were added, and the cells were incubated at 4 °C in the dark for 30 minutes for staining. Flow cytometric analysis was performed using the FACS Calibur system (Becton Dickinson, Franklin Lakes, NJ, USA) on a minimum of 10⁴ cells. Dot plots were generated, and the total fraction of apoptotic cells was quantified as described.

p53 = p53 protein expression level in PC3 cells; type: cell-based, human; conditions: DMSO control 151.33 ± 3.33
Bax = Bax protein expression level in PC3 cells; type: cell-based, human; conditions: DMSO control 81.49 ± 3.16
Bcl-2 = Bcl-2 protein expression level in PC3 cells; type: cell-based, human; conditions: DMSO control 21.68 ± 0.7
caspase-3 = test: Caspase-3 activity in PC3 cells; type: cell-based, human; conditions: DMSO control 67.02 ± 2.6
Description: (§6) This notable increase underscores the activation of downstream apoptotic processes, as caspase-3 is a key effector protease responsible for the cleavage of vital cellular substrates during apoptosis. […] The activation of caspase-9 indicates the involvement of the intrinsic (mitochondrial) pathway, consistent with the observed modulation of upstream regulators, including p53, Bax, and Bcl-2.

caspase-9 = test: Caspase-9 activity in PC3 cells; type: cell-based, human; conditions: DMSO control 4.66 ± 0.41
Description: as §6

CA IX = conditions: benzofuran-based SLC-0111 analog; ref Shaldam et al., 2021; cited from earlier work

## NS(=O)(=O)c1ccc(NC(=O)Nc2ccc(F)cc2)cc1 [SLC-0111, reference compound]
MCF7 cancer cell line; MCF7, read-out: IC50 MCF7
  IC50: 18.1 µg/mL (≈ 58.7 µM)
PC3 cancer cell line
  IC50: 8.71 µg/mL (≈ 28.2 µM)
[1]; CCD-986Sk
  IC50: 45.7 µg/mL (≈ 148 µM)

## NS(=O)(=O)c1ccc(NC(=O)Nc2ccncc2)cc1 [Pyr, 4-(3-(pyridin-4-yl)ureido)benzenesulfonamide]
HT-29 cancer cell line
  IC50: 27.7 µg/mL (≈ 94.9 µM)
MCF7 cancer cell line; MTT, MCF7 breast cancer cells, read-out: IC50 MCF7
  IC50: 11.2 µg/mL (≈ 38.3 µM)
PC3 cancer cell line; MTT, PC3 prostate cancer cells
  IC50: 8.36 µg/mL (≈ 28.6 µM)
[1]; MTT, normal CCD-986sk cells
  IC50: 50.3 µg/mL (≈ 172 µM)
PC3 cells [2]; DMSO control 17.50
  DNA content % G2/M: 7.18%
PC3 cells [2]; DMSO control 28.66
  DNA content % S: 16.23%
PC3 cells [2]; DMSO control 53.84
  DNA content % G0-G1: 76.59%
PC3 cells [3]; DMSO control 0.15
  Apoptosis Late: 15.74%
PC3 cells [3]; DMSO control 0.42
  Apoptosis Early: 9.33%
PC3 cells [3]; DMSO control 1.82
  Necrosis: 4.39%
p53
  P53 Conc: 1461.33 ± 10.00 pg/mL
Bax
  Bax Conc: 477.27 ± 18.54 pg/mL
Bcl-2
  Bcl-2 Conc: 8.88 ± 0.3 pg/mL
caspase-3
  Caspase 3 Conc: 573.19 ± 22.27 pg/mL
caspase-9
  Caspase-9 Conc: 41.82 ± 0.95 ng/mL

## NS(=O)(=O)c1ccc(NC(=O)Nc2oc3ccccc3c2Br)cc1 [compound 1]
CA IX
  Ki: 7.1 nM
